Measured values: article PMC9492542, “Brain-restricted mTOR inhibition with binary pharmacology” (Nature, 2022)
Several values for one entry are separate records, joined by “and”; a condition that tells them apart may be missing. Identical values can stand only once.

What was measured:
U87MG = experiment: Orthotopic intracranial U87MG-luciferase glioblastoma xenograft
MTORC1 = experiment: Equilibrium constants for mTORC1 binding used in the model; conditions: read-out: Kd4 (drug binding to MTORC1 without FKBP); estimated, affinity of the TORKi portion for MTORC1
mTOR [1] = experiment: Immunoblot analysis of mTOR signalling (p-S6, p-4EBP1) in MCF7 cells, incl. screen for blocking of rapamycin/RapaLink-1
mTOR [2] = experiment: mTOR signalling in mouse whole brain and skeletal muscle after single i.p. dose (immunoblot, insulin stimulated); assay type: in vivo; conditions: for p-4EBP1 Brain, fold relative to no insulin, normalized to GAPDH / p-4EBP1 Muscle, fold relative to no insulin, normalized to GAPDH / p-RPS6 Brain, fold relative to no insulin, normalized to GAPDH / p-RPS6 Muscle, fold relative to no insulin, normalized to GAPDH: RL1 1 mg/kg, RB 40 mg/kg, insulin 250 mU, listed as RL1
Description: Whole brain and skeletal muscle were analyzed by immunoblot.

human PBMCs = experiment: IL-2 secretion of stimulated PBMCs (sandwich ELISA); assay type: cell-based; parameters: unit not given here
[3] = U87MG-Luc, day 0, individual mice
[4] = U87MG-Luc, day 5, individual mice
[5] = U87MG-Luc, day 10, individual mice
[6] = U87MG-Luc, day 15, individual mice
[7] = U87MG-Luc, day 20, individual mice
[8] = U87MG-Luc, day 25, individual mice
[9] = BALB/c nu/nu mice, RapaLink-1 1 mg per kg, RapaBlock 40 mg per kg, 4 h or 24 h

For `CO[C@H]1C[C@@H]2CC[C@@H](C)[C@@](O)(O2)C(=O)C(=O)N2CCCC[C@H]2C(=O)O[C@H]([C@H](C)C[C@@H]2CC[C@@H](OCCOCc3cn(CCOCCOCCOCCOCCOCCOCCOCCOCCC(=O)NCCCCn4nc(-c5ccc6oc(N)nc6c5)c5c(N)ncnc54)nn3)[C@H](OC)C2)CC(=O)[C@H](C)/C=C(\C)[C@@H](O)[C@@H](OC)C(=O)[C@H](C)C[C@H](C)/C=C/C=C/C=C/1C` [RapaLink-1], the “tumour growth and survival” value (U87MG; RapaLink-1 1 mg per kg, RapaBlock 40 mg per kg, i.p. every 5 days) was “significantly suppressed tumour growth and improved survival”, the Mouse weight (U87MG; [3]) was 25.3 g and 21.6 g and 19 g and 22.3 g and 21.7 g and 23.2 g and the “Tumor size (measured by bioluminescence)” value (U87MG; [3]) was 4240000 and 1010000 and 1910000 and 5080000 and 3680000 and 9440000. For the same molecule, the Mouse weight (U87MG; [4]) was 26.2 g and 22.3 g and 20.2 g and 23.3 g and 23.2 g (2×), the “Tumor size (measured by bioluminescence)” value (U87MG; [4]) was 1460000 and 640000 and 1800000 and 5970000 and 155000 and 7230000 and the Mouse weight (U87MG; [5]) was 26.1 g and 22.4 g (2×) and 20.7 g and 22.7 g and 21.8 g. The “Tumor size (measured by bioluminescence)” value (U87MG; [5]) was 3420000 and 1030000 and 12000000 and 3100000 and 5850000 and 4400000, the Mouse weight (U87MG; [6]) was 25.2 g and 22 g and 20.3 g and 23.7 g and 23.4 g and 21.9 g and the “Tumor size (measured by bioluminescence)” value (U87MG; [6]) was 11100000 and 3790000 and 12200000 and 19000000 and 408000 and 7800000. The Mouse weight (U87MG; [7]) was 26.4 g and 22.6 g and 21.3 g and 25.8 g and 23.9 g and 23.3 g, the “Tumor size (measured by bioluminescence)” value (U87MG; [7]) was 53600000 and 17300000 and 32400000 and 53200000 and 63600000 and 11500000 and the Mouse weight (U87MG; [8]) was 22.4 g and 22.3 g and 20.3 g and 24.8 g and 21.6 g and 23.4 g. The “Tumor size (measured by bioluminescence)” value (U87MG; [8]) was 605000000 and 412000000 and 640000000 and 201000000 and 1240000000 and 128000000, the “Tumor size (measured by bioluminescence)” value (U87MG; U87MG-Luc, day 30, individual mice) was 1100000000 and 366000000 and 814000000 and 167000000 and the Mouse survival (U87MG; U87MG-Luc, individual mice, listed as RL-1) was 32 days and 30 days and 41 days and 40 days. For the same molecule, the Kd (MTORC1) was 5 nM, the “phospho-S6 (S240/244) and phospho-4EBP (T37/46) levels” value (mTOR [1]; MCF7, 10 nM RapaLink-1) was “almost undetectable levels” and the “phospho-S6 (S240/244) and phospho-4EBP (T37/46) levels” value (mTOR [1]; MCF7, 10 nM RapaLink-1 + 10 µM FK506) was “showed no effect on either marker”. For the same molecule, the “p-4EBP1 Brain, fold relative to no insulin, normalized to GAPDH” value (mTOR [2]; 4h) was 1.26 and 1.03 and 0.71, the “p-4EBP1 Muscle, fold relative to no insulin, normalized to GAPDH” value (mTOR [2]; 4h) was 1 and 1.04 and 1.12 and the “p-RPS6 Brain, fold relative to no insulin, normalized to GAPDH” value (mTOR [2]; 4h) was 1.23 and 1.15 and 1.11. For the same molecule, the “p-RPS6 Muscle, fold relative to no insulin, normalized to GAPDH” value (mTOR [2]; 4h) was 0.9 and 1.3 and 1.14, the “p-4EBP1 Brain, fold relative to no insulin, normalized to GAPDH” value (mTOR [2]; 24h) was 0.98 and 0.96 and 0.78 and the “p-4EBP1 Muscle, fold relative to no insulin, normalized to GAPDH” value (mTOR [2]; 24h) was 1.18 and 1.08 and 1.1. The “p-RPS6 Brain, fold relative to no insulin, normalized to GAPDH” value (mTOR [2]; 24h) was 0.89 and 0.78 and 1.52, the “p-RPS6 Muscle, fold relative to no insulin, normalized to GAPDH” value (mTOR [2]; 24h) was 1.11 and 1.39 and the “mTOR activity in brain (p-S6, p-4EBP1)” value (mTOR [2]; [9]) was “potently inhibited mTOR signalling in both skeletal muscle and brain tissues”. For the same molecule, the “mTOR activity in skeletal muscle (p-S6, p-4EBP1)” value (mTOR [2]; [9]) was “potently inhibited mTOR signalling in both skeletal muscle and brain tissues”, the IL-2 secretion (human PBMCs; 0.005081 nM RapaLink-1, +10 μM RapaBlock) was 4596.86 and 6574.88 and 5859.62 and the IL-2 secretion (human PBMCs; 0.005081 nM RapaLink-1, No RapaBlock) was 6581.16 and 6332.27 and 5840.51. For the same molecule, the IL-2 secretion (human PBMCs; 0.015242 nM RapaLink-1, +10 μM RapaBlock) was 4621.98 and 5392.72 and 5694.48, the IL-2 secretion (human PBMCs; 0.015242 nM RapaLink-1, No RapaBlock) was 6342.48 and 6161.37 and 6860.66 and the IL-2 secretion (human PBMCs; 0.045725 nM RapaLink-1, +10 μM RapaBlock) was 5493.48 and 5276.26 and 6056.43. For the same molecule, the IL-2 secretion (human PBMCs; 0.045725 nM RapaLink-1, No RapaBlock) was 6261.35 and 6059.04 and 6285.42, the IL-2 secretion (human PBMCs; 0.137174 nM RapaLink-1, +10 μM RapaBlock) was 4501.07 and 6329.65 and 6310.02 and the IL-2 secretion (human PBMCs; 0.137174 nM RapaLink-1, No RapaBlock) was 6367.08 and 6367.6 and 6351.64. For the same molecule, the IL-2 secretion (human PBMCs; 0.411523 nM RapaLink-1, +10 μM RapaBlock) was 5797.33 and 5310.02 and 6522.53, the IL-2 secretion (human PBMCs; 0.411523 nM RapaLink-1, No RapaBlock) was 6337.77 and 6266.32 and 6532.48 and the IL-2 secretion (human PBMCs; 1.23457 nM RapaLink-1, +10 μM RapaBlock) was 5361.84 and 6623.29 and 6201.15. The IL-2 secretion (human PBMCs; 1.23457 nM RapaLink-1, No RapaBlock) was 2712.8 and 2327.56 and 3337.76, the IL-2 secretion (human PBMCs; 3.7037 nM RapaLink-1, +10 μM RapaBlock) was 5860.66 and 6735.83 and 6648.15 and the IL-2 secretion (human PBMCs; 3.7037 nM RapaLink-1, No RapaBlock) was 362.628 and 408.689 and 558.388. For the same molecule, the IL-2 secretion (human PBMCs; 11.1111 nM RapaLink-1, +10 μM RapaBlock) was 4848.63 and 4895.73 and 6502.64, the IL-2 secretion (human PBMCs; 11.1111 nM RapaLink-1, No RapaBlock) was 251.4 and 437.215 and 324.156 and the IL-2 secretion (human PBMCs; 33.3333 nM RapaLink-1, +10 μM RapaBlock) was 4350.33 and 5093.33 and 4877.15. For the same molecule, the IL-2 secretion (human PBMCs; 33.3333 nM RapaLink-1, No RapaBlock) was 275.478 and 292.227 and 264.486, the IL-2 secretion (human PBMCs; 100 nM RapaLink-1, +10 μM RapaBlock) was 2837.9 and 2542.68 and 2708.61 and the IL-2 secretion (human PBMCs; 100 nM RapaLink-1, No RapaBlock) was 278.356 and 273.907 and 280.974.
